Among the data in a melting point compilation (Tetko et al.; mined from patent text by program, amines drawn as free bases though some values may be those of a salt) are melting point values, retold here.

Structures are written as SMILES. Bounds are passed on as bounds.

What is called melting point is the temperature of the solid-liquid transition. In turn, `C=CCN1C(=O)C(C)(C)c2ccc(-c3nc4ccccc4[nH]3)cc21` gave a melting point of 197 to 200 °C. `COc1ccc(C(=O)Nc2c(Cl)cncc2Cl)c2c1oc1ccncc12` displayed a melting point of over 260 °C. The result for `O=C(NCCO)c1cc2c(Oc3ccc(Cl)cc3)cnc(Cl)c2s1` reads 129 to 132 °C; that for `CCN1CC(OCC=C(C)C)(C(F)(F)F)c2cc(Cl)ccc2NC1=O` (centres undefined), 158 to 160 °C.

`N#Cc1cccc(-n2c(=O)c(C(=O)Cc3ccccc3)c(O)c3cccnc32)c1` had a melting point of 216 to 218 °C. As to `CCCNc1ncc2c(=O)[nH]c(-c3ccccc3OCCC)nc2n1`, the melting point was in the range of 185 to 187 °C. As for `CCc1cccc(CC)c1NC(=O)c1c2n(c(C)cc1=O)CCCC2`, the melting point fell in the range of 134 to 137 °C. Compound `COC(=O)c1nc2ccc(Cl)cc2n1Cc1ccccc1` came in with a melting point of 184 to 186 °C. `CCCSc1ncc(CC(NC(=O)C2CCCC2)C(=O)O)n1Cc1ccccc1Cl` (centres undefined) came in with a melting point of 173 to 175 °C. Compound `Cc1cc(-c2ccc(OC3SCC(O)C(O)C3O)cn2)ccn1` (centres undefined) showed a melting point of 214 °C. Take `COC[C@](C#N)(C(=O)N1CCN(c2cnccn2)CC1)[C@H](c1ccccc1OC)c1cccc2ccccc12`: the melting point is 149 °C. `CCC(O)(c1ccc(OCCN(C)C)cc1)c1cccc(Cl)c1` (centres undefined) displayed a melting point of 108 to 109 °C. For the compound `COC(=O)[C@@H]1O[C@H](c2ccc(OC)cc2)N(C(=O)OC(C)(C)C)[C@H]1c1ccccc1`, the melting point is 104 to 105 °C.

Take `C#Cc1cc(C(=O)OC)ccc1S(C)(=O)=O`: the melting point was in the range of 95 to 98 °C. Under `COc1ccc(N2CCN(c3c(C)c(C)c4c(c3C)C(N3CCN(C)CC3)C(C)(C)O4)CC2)cc1` (centres undefined) stands 94 to 96 °C; under `O=C(C=Cc1cccc(Br)c1)c1cnc2sc3c(n12)CCCCC3`, 125 to 126 °C. The result for `O=C1C2=C(CCCC2)C(Cl)N1c1ccc(Cl)cc1F` (centres undefined) reads 89 to 90 °C; that for `N#Cc1c(Cl)cccc1C(Br)Br`, 120 °C; that for `CCOC(=O)C=C1CSC(NC(=O)c2ccccc2)=NN1C(=O)c1ccccc1`, 187 to 189 °C. `Cc1[nH]c(C=O)c(C)c1CCCCO` gave a melting point of 99 °C. `COC(=O)c1cc(S(C)(=O)=O)c(F)cc1Br` displayed a melting point of 126 °C. `CCNC(=O)/C=C1\CCc2ccc(F)cc21` showed a melting point of 125 to 127 °C. For `O=C(O)CN1C(=O)[C@@H](NC(CCc2ccccc2)C(=O)O)CSC1c1ccccc1` (some centres undefined), the melting point was in the range of 132 to 138 °C. `N=C(NCCNC(c1ccccc1)(c1ccccc1)c1ccccc1)N[N+](=O)[O-]` returned a melting point of 217 to 219 °C.

With `CC(C)C(=O)c1ccc(-c2ccc3c(c2)CC[C@H]2N(C)C(=O)CC[C@]32C)cc1`, the melting point was in the range of 101 to 103 °C.

Compound `O=C(O)CCCc1cc2cc(Cl)ccc2n1S(=O)(=O)c1ccc2c(c1)CNCC2` yielded a melting point of over 250 °C.

For `O=[N+]([O-])c1ccc(Nc2ccccc2)s1`, the melting point amounted to 186 °C.

On to `Cc1c(-c2ccccc2)oc(=O)c(Sc2ccccc2)c1O`, for which the melting point lay within 166 to 167 °C. The compound `COc1cc(/C(C#N)=C\c2ccc(C)c(N)c2)cc(OC)c1OC` displayed a melting point of 161 to 162 °C. `COc1ccc(C(=O)CCCCCBr)cc1`: the melting point was in the range of 40 to 41 °C.

As for `CCCN(CCC)Cn1cnc2c1c(=O)n(C)c(=O)n2C`, the melting point was 72 to 73 °C. For `CON=C(Cl)c1ccccc1S(=O)(=O)NC(=O)Nc1nc(C)cc(OC)n1`, the melting point was in the range of 178 to 179 °C. The result for `ClCc1nc(Cl)c2ccsc2n1` reads 66 to 68 °C. Under `CC(OC(=O)Nc1ccc(-c2ncn(-c3ccc(C(F)(F)F)cc3)n2)cc1)c1ccc(C(F)(F)F)cc1` (centres undefined) stands 156 to 158 °C; under `COc1ccc(C(=O)Cc2c(Cl)cncc2Cl)c2c1OCCCCO2`, 142 to 143 °C. The compound `CCOc1nc(-c2ccc(NC(=O)NCc3cccnc3)cc2)ccc1C(=O)NC` displayed a melting point of 200 °C. Compound `CNC(=O)CC1CN=C(c2cc3cc(Oc4ccc(COC)nc4)cc(OC)c3[nH]2)S1` (centres undefined) showed a melting point of 102 to 104 °C. With `CC(C)c1cc(C(C)C)c(CC(=O)O)c(-c2ccc(F)cc2)c1CO`, the melting point was 124 to 126 °C.

Take `O=C(O)C1=Nc2ccc3c(c2=C1)=CCO3`: the melting point is 183 to 184 °C. The compound `Nc1nnc(-c2ccc(C(F)(F)F)cc2)cc1C(F)(F)F` registered a melting point of 186 to 190 °C. The result for `CC(C)(C)C1C=C(Cn2nc(-c3ccccc3-c3nn(CC4=CC(C(C)(C)C)C(O)(C(C)(C)C)C=C4)c(=O)o3)oc2=O)C=CC1(O)C(C)(C)C` (centres undefined) reads 220 °C; that for `CCOC(=O)C1=C2NCCN2C(C)=C(C(=O)OC(C)C)C1c1cccc([N+](=O)[O-])c1` (centres undefined), 136 °C. In turn, `CCOC(=O)c1nnc(CNC(=O)c2cc3ccccc3[nH]2)n1-c1sc(CC)cc1C(=O)c1ccccc1Cl` had a melting point of 233 to 235 °C.

The compound `O=C(Nc1ccc2nc(CN3CCCCC3)ccc2c1)c1ccc(-c2ccccc2)cc1` displayed a melting point of 186 to 188 °C. In turn, `CCOC(=O)c1sc2cc(COS(C)(=O)=O)ccc2c1S(=O)c1cccc(OC)c1` (centres undefined) came in with a melting point of 80 to 83 °C.

In turn, `CC(=O)c1ccc(OCc2cccc(N)c2)cc1O` registered a melting point of 153 to 154 °C.

As to `O=c1c2c(nc3c(OCc4ccccc4)cccn13)CCC2`, the melting point lay in the range of 150 to 152 °C. Compound `ClCc1ccc(CCl)o1` displayed a melting point of 27 to 28 °C. `Nc1ccc(CN2C(=O)C3(COc4cc5c(cc43)OCCO5)c3ccccc32)cn1` (centres undefined) gave a melting point of 117 to 119 °C. `COC(=O)CCCc1cc2nc(Cl)ccc2n1S(=O)(=O)c1ccc(N(C)C)cc1Cl` displayed a melting point of 123 to 124 °C. The compound `CCOCc1nc2cnc3ccccc3c2n1CCC(C)C` came in with a melting point of 64 to 65 °C.

The compound `Cc1[nH]c(=O)c(C#N)cc1-c1ccc(OCCCC(=O)O)cc1` came in with a melting point of 247 to 249 °C.

`CCOC(=O)C(=CNc1cccc(N2CCN(C)CC2)n1)C(=O)OCC` displayed a melting point of 114 to 115 °C. `c1ccc(CNc2nc3cc(-c4ccccc4)nnc3c3ccccc23)cc1`: the melting point is 207 to 209 °C.

Compound `COC(=O)c1cc(=O)c2cc(OC)cc(N)c2o1` yielded a melting point of 145 to 147 °C. In turn, `CCCc1c(OCCOc2cccc3c2CCCC3)ccc2c1OC(CCC(=O)O)(CCC(=O)O)CC2=O` yielded a melting point of 160 to 162 °C. The result for `CCCCC[C@@H](C(=O)O)c1cccc2c1OCO2` reads 47 to 48 °C; that for `Cc1cc(Nc2ncnc3ccc(-c4cccs4)cc23)ccc1OCc1ccccn1`, 205 to 206 °C; that for `C=C(OCC)c1nc(-c2ccco2)c2ncn(Cc3ccc(OC)cc3)c2n1`, 144 to 145 °C.

With `N#CC(c1ccncc1)c1nnc(Nc2ccc3ncsc3c2)c2ccccc12` (centres undefined), the melting point lay in the range of 163 to 164 °C. The result for `Nc1cc2c(cc1Cl)N1CCCN=C1C2=O` reads over 270 °C; that for `O=C(NOC(=O)c1ccc(Cl)cc1)OCc1ccccc1`, 97 °C; that for `C/C(=C(\C#N)C(N)=S)N1CC[C@@H]2CCCC[C@H]2C1` (relative stereo), 173 to 175 °C. Turning to `C=CC(=O)Nc1cccc(OC(=O)NCCCCCCCCCCCCCCCCCC)c1`, the melting point lay in the range of 124 to 126 °C. `COC(=O)c1c(C(F)F)nc(C(F)(F)F)c(C(=O)OC)c1CSC`: the melting point lay within 50.5 to 51.5 °C. Under `CC(C)(C)c1ccc(OCCOc2ccccc2[N+](=O)[O-])c([N+](=O)[O-])c1` stands 114 to 116 °C; under `O=C(O)c1c2c(nc3ccc(Br)cc13)-c1ccc(-c3ccccc3F)cc1CCC2`, over 300 °C; under `O=C(Nc1ccc(Oc2ccccc2)cc1)Nc1sccc1C(=O)O`, 195 to 198 °C. Take `COc1ccc2[nH]cc(C3=CCN(C)CC3)c2n1`: the melting point amounted to 203 °C. `O=C(O)Cc1ccc(C(=O)c2cccs2)cc1`: the melting point lay within 126 to 129 °C. With `Nc1ncc(-c2ccc(F)c3ccccc23)o1`, the melting point was in the range of 171 to 174 °C. As for `COc1ccc(C(=O)Nc2c(Cl)cc(NC(C)=O)cc2Cl)cc1OC1CCCC1`, the melting point fell in the range of 250 to 252 °C.

For `N=C(N)Nc1c(Cl)cccc1Cl`, the melting point was 213 °C. Compound `COc1cc(C)nc(NC(=O)NS(=O)(=O)c2cccnc2Cl)n1` came in with a melting point of 165 to 168 °C.

`NNc1nnc(C=Cc2ccc([N+](=O)[O-])o2)s1` displayed a melting point of 205 to 206 °C. Compound `CCOC(=O)[C@H](Cc1cccc(OS(=O)(=O)C(F)(F)F)c1)NC(=O)C(F)(F)F` showed a melting point of 38 to 39 °C. As to `COc1cc(-n2cc[nH]c2=O)c(Cl)cc1Cn1nc(-c2ccc(C(F)(F)F)cc2)oc1=O`, the melting point is 201 to 202 °C. On to `CN1CCN(c2cc3c(cc2F)c(=O)n(O)c(=O)n3-c2cccc(F)c2)CC1`, for which the melting point was in the range of 176 to 178 °C. The compound `COc1ccc(-c2cnc(S)nc2-c2ccc(OC)cc2)cc1` registered a melting point of 188 to 191 °C.

As for `Oc1ccc(C2(c3ccccc3)OCCCC2c2ccccc2)cc1` (centres undefined), the melting point is 194 to 196 °C. In turn, `CCOc1cc2nc(NC)nc(-c3cccc(-c4cnc5ccccc5c4)c3)c2cc1OCC` yielded a melting point of 157 to 159 °C.

`CC1(C)CC(OC(=O)Nc2ccccc2)CC(C)(C)N1CC(O)c1ccccc1` (centres undefined) registered a melting point of 186 to 187 °C.

For the compound `CC(C)CCC(=O)N[C@@H]1N=C(c2ccccc2)c2ccccc2N(C)C1=O`, the melting point lay in the range of 123 to 125 °C.

`CCC(=O)Oc1ccc(CC(=O)O)cc1C(C)(C)C` returned a melting point of 55.5 to 56.5 °C.

`CSc1ncncc1C(c1ccccc1F)C(C)(C)C(=O)O` (centres undefined) gave a melting point of 204 to 205 °C.

In turn, `Cn1ncc2[nH]c3ccc(NC(=O)c4ccccc4)cc3c(=O)c21` showed a melting point of over 300 °C. Compound `N#Cc1cc2c(Nc3cccc(Cl)c3)ncnc2[nH]1` showed a melting point of 284 to 287 °C.

As for `Cc1oc(-c2ccccc2)nc1C(O)COc1ccc(CC2SC(=N)NC2=O)cc1` (centres undefined), the melting point fell in the range of 238 to 239 °C. In turn, `CCCn1c2c(c3ccccc3c1=O)C(=O)c1ccccc1-2` had a melting point of 166 to 167 °C.
